# In article PMC8399565, “Fluorescence Cross-Correlation Spectroscopy Yields True Affinity and Binding Kinetics of Plasmodium Lactate Transport Inhibitors” (Pharmaceuticals, 2021):
# Read-outs that look alike come from different tables or passages of the source.
# Legend:
# PfFNT wt-GFP [1] = target: T1, PfFNT wt-GFP (Plasmodium falciparum, UniProt O77389); assay: FCCS equilibrium competition binding, PfFNT wildtype; details: for complex formed in the absence of a competitor: 70 nM tracer; for Ki: Cheng Prusoff
# T1 construct: The DNA of full-length PfFNT from Plasmodium falciparum 3D7 was cloned as a C-terminal GFP fusion; expressed in transfected cells; intact cells for imaging, LMNG-solubilized membranes or lysates for FCCS
# Procedure: To analyze the binding properties of unlabeled inhibitors BH296 and […], we determined their inhibition constants (Ki) in equilibrium competition binding assays. For this, we first incubated membrane preparations comprising 10 nM of PfFNT wildtype with labeled BH296 at a concentration of 70 nM. The interaction was then competed with increasing amounts of unlabeled parental compounds BH296 and BH267.meta within a concentration range of 10 pM and 10 µM. The concentration of formed complex between PfFNT-GFP and BH296-DY647 relates to the values observed in the saturation binding assays. […] The corresponding Ki values were then calculated employing the Cheng Prusoff equation [17].
# In view of the differences in complex formation of both tracers, we were also interested to see how both unlabeled compounds perform in competition experiments with BH267.meta-DY647 as a probe. The identical PfFNT-GFP membrane preparation as in the previous experiment was incubated with BH267.meta-DY647 at a concentration of 70 nM to allow for complex formation. Different amounts of competitors BH296 and BH267.meta were added to the interaction at concentrations ranging from 10 pM to 10 µM and incubated at room temperature for 1 h to allow the interaction to reach equilibrium. […] A significant amount of 20% of complex remained intact, independent of competitor concentration and incubation time. This finding is of interest because it mirrors the behavior of BH296-DY647 in saturation binding assays, where a subfraction of target appeared incapable of binding to the more space-occupying BH296 (Figure 4d, Table 2).
# (§1) FCCS measurements were conducted in 384-well glass-bottom plates (cat. no PS96B-G175, SWISSCI, Switzerland) using an Insight plate reader (Evotec Technologies, Germany) fitted with a U-Apo300 40x water immersion lens, NA 1.15 (Olympus, Japan). The 488 nm laser line of an argon-ion laser and the light of a 633 nm helium–neon laser were used for excitation. Fluorescence fluctuations were recorded for 8 s with 12 repetitions and analyzed afterward using FCS+plus Analyze 1.1P (Evotec technologies, Version 1.2.5g). FCCS analysis was carried out as described previously. Briefly, for measuring the dissociation constant (KD), a titration series of 12 dilutions was prepared, where the concentration of the lysates obtained from HEK cells expressing GFP-fusions of PfFNT WT and G107S was kept constant, and the concentration of the labeled binding partner (BH296-DY647 and BH267.meta-DY647, respectively) was varied. The IC50 values were calculated by plotting the concentration from the dual labeled complex against the concentration of the competitor titrated over a concentration range from 10 µM to 10 pM. Samples were incubated for 1 h at room temperature prior to FCCS measurements to allow the formation of drug target complexes. From the resulting IC50 values, the Ki values were obtained by application of the Cheng Prusoff equation [17]. To assess the rate constants, time-resolved measurements were carried out at different concentrations of the labeled ligand. […] All KD and IC50 values, as well as kinetic parameters, were determined from three independently repeated experiments. The figures show one representative measurement; however, the calculated KD, Ki, kon and koff values are presented as an average of the three measurements ± SD. Error bars denote ± SEM.
# PfFNT wt-GFP [2] = target: T1, PfFNT wt-GFP; assay: Time-resolved FCCS binding kinetics
# Procedure: To complete our biophysical interaction analysis, we determined the rate constants of both labeled inhibitors to PfFNT wildtype. This is of relevance because inhibitors with similar affinities but different association and dissociation rates can show different activity profiles. […] For measuring the kinetics of direct interactions between PfFNT and the labeled inhibitor molecules, we applied the target at a concentration of 10 nM and chose ligand concentrations that exceeded the number of target molecules by […]. In this way, we ensured that throughout the course of the kinetic measurement, the depletion of free ligands remained insignificant. First, time resolved binding curves were recorded for ligand concentrations of 148, 133, 115, 100, 81, 76, 44, 25 nM (BH296) and 120, 102, 76, 74, 65, 58, 46, 32 nM (BH267.meta), respectively, to obtain kobs values (Figure 5). Then kon and koff values were calculated by linear regression. Both inhibitors bind and dissociate with equal rate constants (Table 3) and are characterized by a rapid association. Equilibrium is reached within less than 1 min at nanomolar inhibitor concentrations. To cross-validate the reliability of our kinetic determinations, we compared the KD values derived from saturation binding assays with affinities deduced from the kinetic rate constants by dividing koff by kon.
# Figure 5 Kinetic studies of the fluorescent probes BH296-DY647 and BH267.meta-DY647 with PfFNT-GFP by FCCS. Time resolved measurements of the interactions were carried out to obtain kobs-values. The kobs-values were plotted versus concentrations of the fluorescent probe. The solid line represents the best linear regression, and kon and koff of both fluorescent probes were estimated from the slope and y-intercept, respectively. kon and koff values of BH296-DY647 and BH267.meta-DY647 are summarized in Table 3.
# as §1
# T1 sequence (O77389 whole entry, the tested form may be a part): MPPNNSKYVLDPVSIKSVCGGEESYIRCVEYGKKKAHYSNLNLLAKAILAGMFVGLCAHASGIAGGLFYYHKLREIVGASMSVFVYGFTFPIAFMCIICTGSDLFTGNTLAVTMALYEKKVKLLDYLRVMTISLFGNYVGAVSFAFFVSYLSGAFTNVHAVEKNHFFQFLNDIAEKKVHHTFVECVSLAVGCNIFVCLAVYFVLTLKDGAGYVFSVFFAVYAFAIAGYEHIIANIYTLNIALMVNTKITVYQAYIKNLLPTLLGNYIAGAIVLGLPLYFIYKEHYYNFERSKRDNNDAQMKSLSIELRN
SMILES,complex formed in the absence of a competitor (PfFNT wt-GFP [1]; 10 nM PfFNT-GFP) [nM],Kd (PfFNT wt-GFP [2]) [µM],koff (PfFNT wt-GFP [2]) [s⁻¹],kon (PfFNT wt-GFP [2]) [M⁻¹ s⁻¹],"Ki (PfFNT wt-GFP [1]; fluorescent probe BH267.meta-DY647 70 nM, 1 h room temperature, read-out: Ki Competitor (converted)) [µM]","Ki (PfFNT wt-GFP [1]; fluorescent probe BH296-DY647 70 nM, 10 nM PfFNT-GFP, read-out: Ki Competitor (converted)) [µM]","Kd (PfFNT wt-GFP [2]; koff divided by kon, read-out: KD (Kinetics)) [µM]","Ki (PfFNT wt-GFP [1]; Ki Competitor, fluorescent probe BH267.meta-DY647 70 nM, 1 h room temperature) [µM]","Ki (PfFNT wt-GFP [1]; Ki Competitor, fluorescent probe BH296-DY647 70 nM, 10 nM PfFNT-GFP) [µM]","complex remaining intact after competition (PfFNT wt-GFP [1]; tracer BH267.meta-DY647, independent of competitor concentration and incubation time) [%]"
CCN1/C(=C/C=C/C=C/C2=[N+](CC)c3ccc(S(=O)(=O)O)cc3C2(C)CCCC(=O)NCCOCCOCCOCCOCCC(=O)NCCCOc2ccc(C(=O)/C=C(\O)C(F)(F)C(F)(F)F)cn2)C(C)(C)c2cc(S(=O)(=O)[O-])ccc21 (stereo not drawn) [BH267.meta-DY647],3,0.112 ± 0.005,0.0297,268000,,,,,,
O=C(/C=C(\O)C(F)(F)C(F)(F)F)c1cccnc1 [BH267.meta],,,,,0.056,0.066 ± 0.006,0.112,,,
"O=C(C=C(O)C(F)(F)C(F)(F)F)c1ccc(O)cc1 [BH296, 4,4,5,5,5-pentafluoro-3-hydroxy-1-(4-hydroxyphenyl)pent-2-en-1-one]",,0.113,,,,,,0.047,0.048 ± 0.002,20
CCN1/C(=C/C=C/C=C/C2=[N+](CC)c3ccc(S(=O)(=O)O)cc3C2(C)CCCC(=O)NCCOCCOCCOCCOCCC(=O)NCCCOc2ccc(C(=O)/C=C(\O)C(F)(F)C(F)(F)F)cc2)C(C)(C)c2cc(S(=O)(=O)[O-])ccc21 (stereo not drawn) [BH296-DY647],1.5,0.113 ± 0.002,0.0311,278000,,,,,,
